The results in this text go back to paper PMC10545747, “Development of cyclopeptide inhibitors of cGAS targeting protein-DNA interaction and phase separation” (Nature Communications, 2023).

Several values for one entry are separate records, joined by “and”; a condition that tells them apart may be missing. Equal entries are not always repeated. Entries after “also recorded” stand apart in the source; their conditions may differ. Square brackets hold non-standard residues; d marks the D form. Peptide text beside a SMILES is read from it.

Assay [1] deals with T1, hcGAS-FL (D191R) mutant (Homo sapiens, UniProt Q8N884, D191R).
T1 construct: The gene encoding full-length human cGAS (hcGAS-FL); 6xHis-SUMO (N, cleaved yes); made in house; host or cells: Escherichia coli BL21 (DE3)
T1 sequence (Q8N884 whole entry D191R): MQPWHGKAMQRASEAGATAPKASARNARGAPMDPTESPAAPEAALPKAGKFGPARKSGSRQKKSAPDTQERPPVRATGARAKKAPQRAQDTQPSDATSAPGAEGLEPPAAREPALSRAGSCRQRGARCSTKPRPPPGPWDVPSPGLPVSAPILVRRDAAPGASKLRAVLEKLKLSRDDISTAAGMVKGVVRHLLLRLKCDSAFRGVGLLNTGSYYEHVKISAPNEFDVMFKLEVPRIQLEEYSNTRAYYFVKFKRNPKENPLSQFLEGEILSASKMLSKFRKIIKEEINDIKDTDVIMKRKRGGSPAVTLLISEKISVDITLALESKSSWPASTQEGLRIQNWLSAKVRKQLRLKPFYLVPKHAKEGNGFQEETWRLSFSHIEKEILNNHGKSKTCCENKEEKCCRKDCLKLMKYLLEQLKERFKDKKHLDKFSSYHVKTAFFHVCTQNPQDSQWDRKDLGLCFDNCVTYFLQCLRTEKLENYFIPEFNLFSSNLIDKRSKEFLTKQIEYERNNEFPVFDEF
Nature of the assay: Surface plasmon resonance (SPR). Format: binding. On the procedure: All SPR binding studies were performed with a Biacore 8 K instrument (GE Healthcare Life Sciences). hcGAS-FL / hcGAS-ΔN (1 mg mL^−1) was immobilized in a CM5 chip by EDC/NHS method. The tested peptide was diluted with running buffer (20 mM HEPES, pH 7.5, 125 mM KCl,10 mM MgCl2). All the samples contained the same concentration of DMSO (0.5%). The tested peptide was injected at a flow rate of 30 μL min^−1 for 200 s of association, followed by 200 s of disassociation at 25 °C. The final graphs were obtained by subtracting blank sensorgrams. The data were analyzed with Biacore Insight Evaluation software.
Supplementary Fig. 5. The binding site of XQ2 may locate at the cGAS-dsDNA interface. (a) The 2D schematic of docked structure of XQ2 with cGAS (PDB ID: 4O69). (b) Structure activity relationship (SAR) analysis of XQ2 a nd its analogues based on the docked structure of the peptides with cGAS. (c) FAM-ISD (40nM) was incubated with the indicated doses of hcGAS-FL or hcGAS-FL (D191R) mutant, and the polarization signal was detected by a microplate reader. (d) SPR analysis of the binding of hcGAS-FL (D191R) mutant with XQ2. The binding affinity (Kd) […]
Data are representative of three independent experiments in (c). (Data […]
Source data are provided as a Source Data file.
XQ- Sequence Inhibition % […]
(In general: Surface plasmon resonance follows binding to a sensor surface in real time, without labels.)

In assay [2] the test system is Hela cells. Description: Immunofluorescence of IRF3 and p-IRF3 after HSV-1. Format: cell-based, human. On the procedure:
Hela cells were treated as described for the indicated time and then fixed with 4% paraformaldehyde for 25 min, permeabilized with 0.25% Triton X-100 for 10 min, and blocked in 1% BSA for 1 h at 37 °C. Then, cells were incubated with indicated primary antibodies overnight at 4 °C, and followed by incubating with donkey anti-rabbit IgG Alexa Fluor 488-labeled secondary antibodies (Abcam, Cat# ab150073, 1:200) for 1 h at 37 °C. The nuclei were counterstained with DAPI (Sigma-Aldrich) before the images were acquired using a Nikon A1R+ confocal microscope.

In assay [3] the test system is THP1-Lucia ISG cells. Description: Luciferase reporter assay, dsDNA stimulation. Format: cell-based, human. Details: Type I interferon response, luciferase activity, Fig. 1c / luciferase activity, Fig. 2a: scale not given here. The source says: To screen direct cGAS inhibitors targeting protein-DNA interface from our developed focused library of macrocyclic peptides, we applied an RNA-based fluorescent biosensor for 2’,3’-cGAMP to detect cGAS activity in vitro (Supplementary Fig. 1a)[49]. The formation of 2’,3’-cGAMP from ATP and GTP was catalyzed by recombinant human cGAS enzyme (hcGAS-ΔN, residues 147–522, Supplementary Fig. 1b) in the presence of ISD (interferon stimulatory DNA, a 45-bp dsDNA), which was readily quantified by the RNA-based fluorescent biosensor and was further confirmed by ion exchange chromatography (Supplementary Fig. 1c). […] Subsequently, a total of 90 macrocyclic peptides were screened at a concentration of 20 μM (Fig. 1a and Supplementary Fig. 1e), and 4 hits (XQ2, XQ8, XQ19, and XQ46) were obtained for further testing at a cut-off of 40% inhibition (Supplementary Table 1). To evaluate the inhibitory effect of the hits against cGAS in cells, we employed real-time quantitative PCR (qPCR) to examine mRNA levels of IFNΒ1 in THP1 cells. The reported cGAS inhibitor RU.521 was used as the positive control, and the non-active peptide XQ28 in the screening assay was used as the negative control. […] The inhibition of cGAS by these hits was further confirmed in the reporter cell line THP1-Lucia ISG (Invivogen) that expresses secreted luciferase induced by an IRF3-inducible ISG54 promoter (Fig. 1c). The discrepancy between the inhibitory effect of the hits in protein and cellular assays may be attributed to their different cellular permeability.
THP1-Lucia ISG cells (Invivogen) were seeded into a 96-well plate and incubated with RU.521 (Invivogen) or XQ2 for the indicated time, and then transfected with dsDNA by lipofectamine 2000 (Invitrogen) or infected by HSV-1 with the indicated titer for 24 h. The supernatant was collected and 50 μL QUANTI-Luc Luciferase reagent (Invivogen) was added to 20 μL supernatants per well, and luciferase luminescence was detected by a microplate reader (BioTek Synergy H1) immediately.

As to `CC(C)C[C@@H]1NC(=O)[C@H](CCCNC(=N)N)NC(=O)[C@H](C(C)C)NC(=O)[C@@H]2CCCN2C(=O)[C@@H](Cc2ccccc2)NC(=O)[C@H](CC(C)C)NC(=O)[C@H](CCCNC(=N)N)NC(=O)[C@H](C(C)C)NC(=O)[C@H](C)NC(=O)[C@@H](Cc2ccccc2)NC1=O` [XQ2, Cyclo (LfAVRLfPVR)] (cyclo(L[dF]AVRL[dF]PVR)), the “binding to hcGAS-FL (D191R), SPR” value in assay [1] is “markedly reduced the binding affinity of XQ2 with cGAS; also recorded: could not be determined by saturation binding”. Further, the “quantification of cells with nuclear IRF3, Fig. 2f” value in assay [2] (HSV-1 6 h, 10 μM) was 5.1642 and 6.6102 and 7.0558. Moreover, the “quantification of cells with p-IRF3, Fig. 2g” value in assay [2] (HSV-1 6 h, 10 μM) is 0.5674 and 0.8706 and 1.039. Also, the “nuclear translocation and phosphorylation of IRF-3, immunofluorescence” value in assay [2] (HSV-1, 10 μM) is “significantly inhibited the nuclear translocation and phosphorylation of IRF-3 triggered by HSV-1”. The “dsDNA-induced luciferase reporter signal” value in assay [3] is on record as “inhibited dsDNA-induced signaling in THP1 cells in a dose-dependent manner with an inhibitory activity comparable to that of RU.521”. Besides, the “luciferase activity, Fig. 2a” value was 0.1339 and 0.107 and 0.1281 in assay [3] (Mock (no dsDNA), compound 10 μM, replicate values); 0.09057 and 0.08624 and 0.1133 in assay [3] (Mock, 1.25 μM); 0.08177 and 0.0892 and 0.09714 in assay [3] (Mock, 2.5 μM); 0.1148 and 0.09368 and 0.09512 in assay [3] (Mock, 5 μM); 0.7893 and 0.9483 and 1.24 in assay [3] (dsDNA 24 h, 1.25 μM); 1.035 and 1.02 and 0.8001 in assay [3] (dsDNA 24 h, 2.5 μM). In addition, the “luciferase activity, Fig. 2a” value was 0.8667 and 0.7097 and 0.78 in assay [3] (dsDNA 24 h, 5 μM); 0.4481 and 0.3329 and 0.2712 in assay [3] (dsDNA 24 h, compound 10 μM, 3 h pretreatment, replicate values). Besides, the “Type I interferon response, luciferase activity, Fig. 1c” value in assay [3] (dsDNA 24 h, replicate values) was 0.5575 and 0.4465 and 0.4391.
